Results: paper PMC9820167, “Design and Synthesis of Conformationally Flexible Scaffold as Bitopic Ligands for Potent D3-Selective Antagonists” (International Journal of Molecular Sciences, 2022)
Like-named read-outs stand apart in the source and are kept apart here.

Assays:
Histamine H3 = Histamine H3 (Homo sapiens, UniProt Q9Y5N1); experiment: PDSP binding screen; settings: for inhibition at 10 µM: read-out: Ki (nM) or % inhibition at 10 µM: H3
Dopamine D5 = Dopamine D5 (Homo sapiens, UniProt P21918); experiment: PDSP binding screen; settings: read-out: Ki (nM) or % inhibition at 10 µM: D5
Dopamine D5, sequence (P21918 whole entry): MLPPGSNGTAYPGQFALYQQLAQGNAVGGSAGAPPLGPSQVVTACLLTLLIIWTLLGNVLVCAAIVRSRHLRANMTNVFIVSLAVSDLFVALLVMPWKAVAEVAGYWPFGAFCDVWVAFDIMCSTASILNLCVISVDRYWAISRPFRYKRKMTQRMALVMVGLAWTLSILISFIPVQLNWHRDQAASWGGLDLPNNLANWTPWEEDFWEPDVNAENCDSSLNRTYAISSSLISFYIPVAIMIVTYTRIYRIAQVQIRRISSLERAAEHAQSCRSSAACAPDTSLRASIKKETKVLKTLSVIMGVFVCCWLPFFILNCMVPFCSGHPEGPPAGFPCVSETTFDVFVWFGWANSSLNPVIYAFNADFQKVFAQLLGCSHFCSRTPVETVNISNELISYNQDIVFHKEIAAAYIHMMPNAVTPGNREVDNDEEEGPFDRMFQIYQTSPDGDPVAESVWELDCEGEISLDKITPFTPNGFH

Serotonin 5-HT7A = Serotonin 5-HT7A (Homo sapiens, UniProt P34969); experiment: PDSP binding screen; settings: read-out: Ki (nM) or % inhibition at 10 µM: 5-HT7A
Serotonin 5-HT7A, sequence (P34969 1-445 isoform P34969-2): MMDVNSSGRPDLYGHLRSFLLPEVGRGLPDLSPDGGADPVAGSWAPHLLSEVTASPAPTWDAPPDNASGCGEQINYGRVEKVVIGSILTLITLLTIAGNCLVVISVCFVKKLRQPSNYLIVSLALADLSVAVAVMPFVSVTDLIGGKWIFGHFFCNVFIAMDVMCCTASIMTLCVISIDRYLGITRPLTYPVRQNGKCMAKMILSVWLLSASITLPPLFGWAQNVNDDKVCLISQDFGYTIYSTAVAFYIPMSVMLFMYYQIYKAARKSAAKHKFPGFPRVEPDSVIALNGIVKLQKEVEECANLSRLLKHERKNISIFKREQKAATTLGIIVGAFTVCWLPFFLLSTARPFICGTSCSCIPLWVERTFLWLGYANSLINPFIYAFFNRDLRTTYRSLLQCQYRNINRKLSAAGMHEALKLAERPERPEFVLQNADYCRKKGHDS

Serotonin 5-HT1B = Serotonin 5-HT1B (Homo sapiens, UniProt P28222); experiment: PDSP binding screen; settings: read-out: Ki (nM) or % inhibition at 10 µM: 5-HT1B
Serotonin 5-HT1B, sequence (P28222 whole entry): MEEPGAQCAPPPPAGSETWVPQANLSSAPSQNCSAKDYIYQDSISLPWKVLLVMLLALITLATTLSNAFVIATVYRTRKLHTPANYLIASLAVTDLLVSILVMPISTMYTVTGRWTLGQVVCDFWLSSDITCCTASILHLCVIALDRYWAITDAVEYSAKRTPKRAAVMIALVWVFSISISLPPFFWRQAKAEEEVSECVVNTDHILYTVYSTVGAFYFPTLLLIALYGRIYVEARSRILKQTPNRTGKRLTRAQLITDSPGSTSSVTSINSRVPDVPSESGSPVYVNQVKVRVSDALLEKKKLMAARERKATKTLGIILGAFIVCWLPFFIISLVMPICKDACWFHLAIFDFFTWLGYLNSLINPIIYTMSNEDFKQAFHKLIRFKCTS

Serotonin 5-HT2C = molecular target: T1, Serotonin 5-HT2C (Homo sapiens, UniProt P28335); experiment: PDSP binding screen
T1 sequence (P28335 33-458): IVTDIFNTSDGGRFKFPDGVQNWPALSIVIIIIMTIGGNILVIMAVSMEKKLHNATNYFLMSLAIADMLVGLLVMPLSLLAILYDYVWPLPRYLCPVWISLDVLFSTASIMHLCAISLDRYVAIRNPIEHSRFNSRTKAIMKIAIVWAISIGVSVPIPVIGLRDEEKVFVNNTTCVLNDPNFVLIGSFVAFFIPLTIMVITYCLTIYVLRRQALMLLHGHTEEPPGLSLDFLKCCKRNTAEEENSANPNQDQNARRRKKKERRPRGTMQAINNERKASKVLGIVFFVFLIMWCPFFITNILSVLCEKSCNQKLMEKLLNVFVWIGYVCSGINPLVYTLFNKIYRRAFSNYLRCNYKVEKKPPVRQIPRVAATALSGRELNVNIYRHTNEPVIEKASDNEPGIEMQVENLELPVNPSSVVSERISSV

Serotonin 5-HT1E = molecular target: T2, Serotonin 5-HT1E (Homo sapiens, UniProt P28566); experiment: PDSP binding screen; settings: read-out: Ki (nM) or % inhibition at 10 µM: 5-HT1E; PDSP; HCl salts
T2 construct: Psychoactive Drug Screening Program (PDSP)
Description: (§1) Based on the results in the dopamine receptor radioligand binding assays, nine flexible-based compounds were selected for further evaluation for off-target binding with other GPCRs through the Psychoactive Drug Screening Program (PDSP) (Supplemental Table S2). […] For example, many of the N-aryl piperazine-based analogs that our group developed in the past for either the D2 or D3 receptor had high affinity for the 5-HT1A receptor [55, 56, 57, 58]. […] This mitochondrial-based protein is typically used as a target for imaging neuroinflammation. The results of the PDSP-binding assays also confirmed the data obtained in our lab for the binding of this panel of nine compounds to D2 and D3 receptors (Supplemental Table S2).

[1] = molecular target: T3, Serotonin transporter (SERT) (Homo sapiens, UniProt P31645); experiment: PDSP binding screen; settings: for inhibition at 10 µM: read-out: Ki (nM) or % inhibition at 10 µM: Serotonin transporter (SERT)
T3 construct: Psychoactive Drug Screening Program (PDSP)
T3 sequence (P31645 whole entry, species assumed): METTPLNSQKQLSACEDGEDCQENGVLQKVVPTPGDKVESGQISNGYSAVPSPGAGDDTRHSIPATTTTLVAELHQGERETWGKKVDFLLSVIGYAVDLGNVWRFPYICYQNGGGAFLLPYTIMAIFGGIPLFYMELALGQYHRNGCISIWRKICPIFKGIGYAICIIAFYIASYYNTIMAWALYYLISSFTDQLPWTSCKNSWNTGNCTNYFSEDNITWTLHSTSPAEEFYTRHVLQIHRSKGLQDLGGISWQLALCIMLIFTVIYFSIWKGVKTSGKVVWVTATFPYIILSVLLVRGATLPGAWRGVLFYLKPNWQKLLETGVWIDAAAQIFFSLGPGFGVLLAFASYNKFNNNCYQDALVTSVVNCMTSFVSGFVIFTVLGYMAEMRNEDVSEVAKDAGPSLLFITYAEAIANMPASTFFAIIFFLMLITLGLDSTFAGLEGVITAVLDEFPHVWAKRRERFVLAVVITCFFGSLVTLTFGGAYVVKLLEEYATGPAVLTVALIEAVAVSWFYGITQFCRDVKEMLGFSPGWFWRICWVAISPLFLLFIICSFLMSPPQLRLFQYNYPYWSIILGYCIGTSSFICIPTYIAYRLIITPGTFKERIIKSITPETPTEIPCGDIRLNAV
Description: as §1

Serotonin 5-HT5A = molecular target: T4, Serotonin 5-HT5A (Homo sapiens, UniProt P47898); experiment: PDSP binding screen; settings: read-out: Ki (nM) or % inhibition at 10 µM: 5-HT5A
T4 construct: Psychoactive Drug Screening Program (PDSP)
Description: as §1

Opioid DOR = molecular target: T5, Opioid DOR (Homo sapiens, UniProt P41143); experiment: PDSP binding screen; settings: read-out: Ki (nM) or % inhibition at 10 µM: DOR
T5 construct: Psychoactive Drug Screening Program (PDSP)
T5 sequence (P41143 whole entry): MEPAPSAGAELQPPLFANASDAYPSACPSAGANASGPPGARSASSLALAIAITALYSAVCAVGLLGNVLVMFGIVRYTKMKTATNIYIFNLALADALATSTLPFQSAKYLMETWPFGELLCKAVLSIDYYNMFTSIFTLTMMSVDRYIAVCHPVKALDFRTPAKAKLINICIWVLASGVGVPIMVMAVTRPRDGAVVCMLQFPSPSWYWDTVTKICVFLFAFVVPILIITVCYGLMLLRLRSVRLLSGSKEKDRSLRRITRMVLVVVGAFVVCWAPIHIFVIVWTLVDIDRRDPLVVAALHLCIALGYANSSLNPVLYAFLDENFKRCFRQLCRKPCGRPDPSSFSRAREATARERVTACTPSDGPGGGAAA
Description: as §1

Histamine H4 = Histamine H4 (Homo sapiens, UniProt Q9H3N8); experiment: PDSP binding screen; settings: read-out: Ki (nM) or % inhibition at 10 µM: H4
Histamine H4, sequence (Q9H3N8 whole entry): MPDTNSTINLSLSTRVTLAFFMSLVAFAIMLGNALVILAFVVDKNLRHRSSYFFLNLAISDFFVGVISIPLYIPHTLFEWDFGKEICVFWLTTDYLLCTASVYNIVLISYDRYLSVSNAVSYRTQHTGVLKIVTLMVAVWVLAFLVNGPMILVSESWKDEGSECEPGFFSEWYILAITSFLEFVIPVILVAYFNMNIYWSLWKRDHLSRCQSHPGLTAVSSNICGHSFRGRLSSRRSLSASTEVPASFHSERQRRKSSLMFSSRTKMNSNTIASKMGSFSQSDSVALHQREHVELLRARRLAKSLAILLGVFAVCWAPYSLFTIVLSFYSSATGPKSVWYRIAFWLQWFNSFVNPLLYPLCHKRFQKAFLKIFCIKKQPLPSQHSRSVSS

Serotonin 5-HT2A = Serotonin 5-HT2A (Homo sapiens, UniProt P28223); experiment: PDSP binding screen
Serotonin 5-HT2A, sequence (P28223 whole entry): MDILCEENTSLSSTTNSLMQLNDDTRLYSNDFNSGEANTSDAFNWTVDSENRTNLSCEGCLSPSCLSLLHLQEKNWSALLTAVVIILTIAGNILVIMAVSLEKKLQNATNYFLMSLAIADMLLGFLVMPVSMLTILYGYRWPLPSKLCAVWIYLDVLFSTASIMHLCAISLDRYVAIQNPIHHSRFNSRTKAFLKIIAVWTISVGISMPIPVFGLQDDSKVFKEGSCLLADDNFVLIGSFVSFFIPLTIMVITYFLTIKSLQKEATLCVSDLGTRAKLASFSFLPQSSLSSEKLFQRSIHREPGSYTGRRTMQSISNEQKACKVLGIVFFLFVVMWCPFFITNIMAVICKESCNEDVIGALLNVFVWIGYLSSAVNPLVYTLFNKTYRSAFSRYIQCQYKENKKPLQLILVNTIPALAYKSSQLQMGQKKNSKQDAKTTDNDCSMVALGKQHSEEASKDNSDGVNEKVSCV

human D3 receptors [2] = molecular target: T6, human D3 receptors (Homo sapiens, UniProt P35462); experiment: β-arrestin recruitment assay (antagonist mode, competition with dopamine); assay type: cell-based; parameters: expressed in transfected cells; settings: for Emax: percentage of the maximum inhibition of dopamine at EC80 concentration, read-out: Imax (% Control); for IC50: potency for D3 receptors, CHO-K1 cells, vs 30 nM (EC80) dopamine, mean ± SD, three experiments, read-out: IC50
Description: (§2) Two different assays were used to evaluate the properties of the analogs described above. The receptor binding affinity was measured by radioligand binding assays using [^125I]IABN with D2 or D3 receptors highly expressed HEK293 cells. The functional activity of the analogs was determined using a β-arrestin recruitment assay. The assay was initially conducted in agonist binding mode to confirm that they function as antagonists at the D3 receptor. Once this efficacy was confirmed, the assay was conducted in antagonist mode to determine the ability of the antagonist to compete with dopamine at the D3 receptor. The results of the antagonist mode assay are reported as IC50 values.
CHO-K1 cells which were overexpressed human D3 receptors were cultured in assaycomplete^TM cell culture kit 107. Cells were seeded at a density of 25,000 cells per well of 96-well plate, and incubated at 5% CO2, 37 °C. Two days later, test compounds were dissolved in DMSO, and diluted with 11-point series in phosphate-buffered saline (PBS). Prepared compounds were added to the cells, and it was incubated for 30 min at 5% CO2, 37 °C. Then, cells were treated with 30 nM (EC80) of dopamine, and the plate was incubated another 90 min. PathHunter^TM detection reagent was added to each well, and then plate was incubated for 80 min at RT in the dark. The chemiluminescent signal was measured by PerkinElmer Enspire plate reader (PerkinElmer, Boston, MA). Data were analyzed by Prism followed by non-linear regression.

Adrenergic beta2 = Adrenergic beta2 (Homo sapiens, UniProt P07550); experiment: PDSP binding screen; settings: for inhibition at 10 µM: read-out: Ki (nM) or % inhibition at 10 µM: beta2
Adrenergic beta2, sequence (P07550 whole entry): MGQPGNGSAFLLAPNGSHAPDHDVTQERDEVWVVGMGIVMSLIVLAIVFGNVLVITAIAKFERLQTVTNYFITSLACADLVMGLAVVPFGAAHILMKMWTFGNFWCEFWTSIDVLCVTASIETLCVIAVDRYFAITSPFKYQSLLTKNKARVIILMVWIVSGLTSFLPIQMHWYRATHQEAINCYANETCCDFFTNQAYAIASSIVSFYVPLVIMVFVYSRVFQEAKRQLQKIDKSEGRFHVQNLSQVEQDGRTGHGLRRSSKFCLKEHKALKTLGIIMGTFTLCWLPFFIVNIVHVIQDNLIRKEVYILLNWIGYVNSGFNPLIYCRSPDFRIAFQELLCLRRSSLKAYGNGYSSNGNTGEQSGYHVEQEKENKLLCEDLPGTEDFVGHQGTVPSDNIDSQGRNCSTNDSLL

Histamine H2 = Histamine H2 (Homo sapiens, UniProt P25021); experiment: PDSP binding screen; settings: for inhibition at 10 µM: read-out: Ki (nM) or % inhibition at 10 µM: H2
Histamine H2, sequence (P25021 whole entry): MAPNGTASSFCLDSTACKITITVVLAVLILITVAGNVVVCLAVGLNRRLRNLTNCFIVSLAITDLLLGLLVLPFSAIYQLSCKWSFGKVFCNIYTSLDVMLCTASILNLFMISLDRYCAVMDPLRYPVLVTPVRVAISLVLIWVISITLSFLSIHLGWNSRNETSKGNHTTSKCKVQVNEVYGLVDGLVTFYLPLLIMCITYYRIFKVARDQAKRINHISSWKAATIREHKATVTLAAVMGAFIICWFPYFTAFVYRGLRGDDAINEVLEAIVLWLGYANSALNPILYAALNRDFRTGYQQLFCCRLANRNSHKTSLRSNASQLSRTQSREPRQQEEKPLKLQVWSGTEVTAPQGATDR

Dopamine D2 = Dopamine D2 (Homo sapiens, UniProt P14416); experiment: PDSP binding screen
Serotonin 5-HT6 = Serotonin 5-HT6 (Homo sapiens, UniProt P50406); experiment: PDSP binding screen
Serotonin 5-HT6, sequence (P50406 whole entry): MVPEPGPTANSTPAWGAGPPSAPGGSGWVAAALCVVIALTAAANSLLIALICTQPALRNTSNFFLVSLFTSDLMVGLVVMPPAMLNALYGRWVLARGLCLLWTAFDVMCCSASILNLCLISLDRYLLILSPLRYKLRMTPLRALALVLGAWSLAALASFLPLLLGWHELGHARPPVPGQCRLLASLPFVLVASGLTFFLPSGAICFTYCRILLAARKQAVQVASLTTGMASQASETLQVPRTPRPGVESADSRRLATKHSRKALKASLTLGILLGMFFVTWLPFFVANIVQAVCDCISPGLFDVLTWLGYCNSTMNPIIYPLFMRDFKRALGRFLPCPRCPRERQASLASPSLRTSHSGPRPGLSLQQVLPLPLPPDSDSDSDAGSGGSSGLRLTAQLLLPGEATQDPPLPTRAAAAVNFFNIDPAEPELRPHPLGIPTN

Serotonin 5-HT2B = Serotonin 5-HT2B (Homo sapiens, UniProt P41595); experiment: PDSP binding screen
human D3 receptors [3] = molecular target: T6, human D3 receptors; experiment: Radioligand binding assay with [125I]IABN, D3 receptor; parameters: expressed in transfected cells; host or cells: HEK293; settings: for Ki: [125I]IABN, D3 receptors expressed in HEK cells, mean ± SEM, three experiments, HCl salts, read-out: Ki ± SEM (nM) D3; for D2/D3: selectivity ratio of Ki D2 / Ki D3 (fold)
Description: as §2
Ki values for D2 and D3 receptors were measured using [^125I]IABN in human D2 and D3 receptors expressed in HEK cells, respectively. A filtration binding assay was used to characterize membrane-associated receptor binding properties. The details for the procedures were described in the literature.

Opioid MOR = Opioid MOR (Homo sapiens, UniProt P35372); experiment: PDSP binding screen

Histamine H3, sequence (Q9Y5N1 whole entry): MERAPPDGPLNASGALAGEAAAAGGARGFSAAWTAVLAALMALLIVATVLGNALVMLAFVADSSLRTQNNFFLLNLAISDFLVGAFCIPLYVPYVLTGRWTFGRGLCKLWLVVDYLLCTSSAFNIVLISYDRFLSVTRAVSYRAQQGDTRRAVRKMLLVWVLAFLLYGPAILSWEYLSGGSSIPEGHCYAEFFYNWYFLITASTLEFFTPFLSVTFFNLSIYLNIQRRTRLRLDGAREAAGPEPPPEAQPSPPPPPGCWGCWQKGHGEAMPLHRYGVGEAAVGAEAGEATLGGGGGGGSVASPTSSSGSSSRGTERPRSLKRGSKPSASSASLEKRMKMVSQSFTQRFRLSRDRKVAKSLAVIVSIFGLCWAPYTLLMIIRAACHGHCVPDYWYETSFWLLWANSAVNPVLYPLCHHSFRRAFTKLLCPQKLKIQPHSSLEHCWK

| Structure (SMILES) | inhibition at 10 µM (Dopamine D5) [%] | inhibition at 10 µM (Serotonin 5-HT7A) [%] | inhibition at 10 µM (Serotonin 5-HT1B) [%] | Ki (Serotonin 5-HT2C) [nM] | inhibition at 10 µM (Serotonin 5-HT1E) [%] | inhibition at 10 µM [1] [%] | inhibition at 10 µM (Serotonin 5-HT5A; PDSP, HCl salts) [%] | inhibition at 10 µM (Opioid DOR) [%] | inhibition at 10 µM (Histamine H4) [%] | Ki (Serotonin 5-HT2A) [nM] | Emax (human D3 receptors [2]) [%] | IC50 (human D3 receptors [2]) [nM] | inhibition at 10 µM (Adrenergic beta2) [%] | inhibition at 10 µM (Histamine H2) [%] | Ki (Dopamine D2) [nM] | Ki (Serotonin 5-HT6) [nM] | Ki (Serotonin 5-HT2B) [nM] | Ki (human D3 receptors [3]) [nM] | D2/D3 (human D3 receptors [3]) | Ki (Opioid MOR) [nM] | also measured |
| --- | --- | --- | --- | --- | --- | --- | --- | --- | --- | --- | --- | --- | --- | --- | --- | --- | --- | --- | --- | --- | --- |
| CCN(CCCNC(=O)c1cc2ccccc2[nH]1)CCNC(=O)c1cc(Br)cc(OC)c1OC [21d, N-(3-((2-(5-Bromo-2,3-dimethoxybenzamido)ethyl)(ethyl)amino)propyl)-1H-indole-2-carboxamide] | < 50 | < 50 | < 50 | 2100 | < 50 | < 50 | < 50 | < 50 | < 50 | 844 | 57.7 ± 26.9 | 9.3 ± 12 | < 50 | < 50 | 89 | 1630 | 181 | 0.8 ± 0.2 | 180.5 | 2410 | Ki (Histamine H3): > 10000 nM |
| CCN(CCCNC(=O)c1ccsc1)CCNC(=O)c1cc(Br)cc(OC)c1OC [21i, N-(3-((2-(5-Bromo-2,3-dimethoxybenzamido)ethyl)(ethyl)amino)propyl)thiophen-e-3-carboxamide] | < 50 | < 50 | < 50 | 9730 | < 50 | < 50 | < 50 | – | < 50 | 1370 | 99.6 ± 20.7 | 2.7 ± 0.2 | < 50 | < 50 | 40 | 2160 | 269 | 7 ± 0.5 | 43.4 | – | inhibition at 10 µM (Histamine H3): < 50%; inhibition at 10 µM (Opioid DOR; PDSP, HCl salts): < 50%; inhibition at 10 µM (Opioid MOR; read-out: Ki (nM) or % inhibition at 10 µM: MOR): < 50% |
| CCN(CCCNC(=O)c1cc2ccccc2n1C)CCNC(=O)c1cc(Br)cc(OC)c1OC [21j, N-(3-((2-(5-Bromo-2,3-dimethoxybenzamido)ethyl)(ethyl)amino)propyl)-1-methyl-1H-indole-2-carboxamide] | < 50 | < 50 | < 50 | 5060 | < 50 | – | – | < 50 | < 50 | 3140 | 81.5 ± 10.1 | 4.8 ± 0.8 | – | – | 76 | 1310 | 183 | 3.1 ± 0.5 | 61.9 | 2770 | inhibition at 10 µM (Histamine H3): < 50%; Ki ([1]; PDSP, HCl salts): 415 nM; inhibition at 10 µM (Serotonin 5-HT5A): < 50%; Ki (Adrenergic beta2): > 10000 nM; Ki (Histamine H2): 3680 nM |
